# Test results as given in patent US10406162B2, “Substituted 2,3-dihydroimidazo[1,2-C]quinazoline-containing combinations” (BAYER PHARMA AKTIENGESELLSCHAFT, priority 2015, dated 2019).
# pIC50: −log10 of the molar value.
# Tests used:
# [1] = system: MFE 280 xenograft tumor model; assay: In vivo efficacy in tumor xenograft model; design: species or system nude mice; settings: for T/C (tumor area) / T/C (tumor weight): study end
# Method: (§1) The in vivo efficacy was evaluated in tumor xenograft models in nude mice with established human tumor cell lines at the MTD and sub-MTD dosages. Tumor cells were cultivated according to ATCC protocols in recommended media contained 10% FCS. Cells were harvested for transplantation in a subconfluent (70%) state. The volume of implantation was 100 μl for mice. When the tumors were approximately in size of 25-50 mm^2, the animals were randomized to treatment and control groups and treatment was started. Treatment of each animal was based on individual body weight. The optimal formulation, application route and schedule were used for each compound (see table 2). Oral administration (p.o.) was carried out via a gastric tube. The oral application volumes were 10 ml/kg and the intravenous application volumes were 10 ml/kg. Tumor area (product of the longest diameter and its perpendicular) using a caliper. The animal body weight was monitored as a measure for treatment-related toxicity. Measurement of tumor area and body weight was performed 2-3 times weekly. T/C ratios (Treatment/Control) were calculated with final tumor areas. Treatment responses were evaluated by means of the clinically-used RECIST criteria (complete response, partial response, stable disease and progressive disease) and response rates were calculated accordingly (RR=number of animals with complete and partial response).
# FIGS. 3A and 3B: Synergistic combination of PI3K inhibitor compound A (Copanlisib) with FGFR inhibitor compound B in MFE-280 xenograft tumor model. The combination of PI3K inhibitor compound A (copanlisib) and FGFR inhibitor compound B was tested and compared to the single agent activity and the SoC doxorubicin in MFE 280, an endometrial tumor model bearing both activating PIK3CA and FGFR2 mutations. At a tumor size of about 40 mm^2 the subcutaneously growing MFE-280 tumors were treated intravenously with two different doses of compound A (copanlisib), 14 (filled triangles)/10 (open triangles) mg/kg, and 7 mg/kg) and in combination of compound A and compound B. The dosing schedule for compound A is depicted in FIG. 3A with triangles. […] Doxorubicin was applied intravenously 1 time every 14 days as a SoC reference.
# MFE-280 cells = assay: 48-hour caspase 3/7 activation assay (apoptosis induction); format: cell-based; settings: single agent
# Method: (§2) In vitro combination assessment: The effects of combinations of the present invention were evaluated using combination index isobologram analysis for in vitro assessment. The efficacy parameters were the effects in a 48-hour caspase 3/7 activation assay. Briefly, cells were plated in 384-well plate with 25 μL medium. After 24 hours, 5 μL of experimental media containing: • either A alone, or • B alone, or • the combination of A (as component A) plus either B, (as component B), at different ratios (***) were used to make serial 3-fold dilutions to generate response curves with 7 concentrations. Experiments were conducted in triplicates. Caspase 3/7 assay was conducted at 48 hours after compound exposure.
# FIG. 1: Synergistic combination of PI3K inhibitor compound A (Copanlisib) with FGFR inhibitor compound B in MFE-280 cells (PIK3CA^G1047Y, FGFR2^S252W). The combination of PI3K inhibitor compound A (copanlisib) and FGFR inhibitor compound B was tested and compared to the single agent activity in MFE 280 to address the activity in apoptosis induction using a cleaved caspase 3/7 assay. MFE 280 cells are bearing both activating PIK3CA and FGFR2 mutations.
# MFE-296 cells = assay: as above; format: cell-based; settings: single agent
# Method: as §2
# FIG. 2: Synergistic combination of PI3K inhibitor compound A (Copanlisib) with FGFR inhibitor compound B in MFE-296 cells (PTEN^del, FGFR2^N549K). The combination of PI3K inhibitor compound A (copanlisib) and FGFR inhibitor compound B was tested and compared to the single agent activity in MFE 296 to address the activity in apoptosis induction using a cleaved caspase 3/7 assay. MFE 296 cells are bearing activating FGFR2 mutation and loss-of-PTEN.
# [2] = Body weight as a measure for treatment-related toxicity in MFE-280 xenograft study; settings: mouse, in vivo, 7 mg/kg
# Method: as §1, with “response). […]” for “response).”
# HEC-1B = assay: IC50 in endometrial cancer cell lines (untitled table); format: cell-based; settings: Homo sapiens, PIK3CA^mut, PIK3R2^mut, PTEN^Loss(protein) and KRAS^mut, Type II
# ECC-1 = assay: as above; format: cell-based; settings: Homo sapiens, PTEN^del, PIK3R1^mut, ER+, PR+, Type I
# KLE = assay: as above; format: cell-based; settings: Homo sapiens, FBXW7^mut, Type II
# MFE 280 = assay: as above; format: cell-based; settings: Homo sapiens, PIK3CA^G1047Y, RB^del, FGFR2^5252W, Type II
# RL95-2 = assay: as above; format: cell-based; settings: Homo sapiens, PIK3R1^mut/PTEN^del/NF2/BRCA2, Type II
# Ishikawa = assay: as above; format: cell-based; settings: Homo sapiens, PTEN^del, PIK3R1^mut, ER+, PR+, Type I
# AN3CA = assay: as above; format: cell-based; settings: Homo sapiens, AN3-CA, PTEN^del, FBXW7, FGFR2^N549K, K310R, Type II
# HEC-50 = assay: as above; format: cell-based; settings: Hec50, PIK3R1^mut, KRAS^mut, Type II
# HEC-1A = assay: as above; format: cell-based; settings: Homo sapiens, PIK3CA^G1049R, PIK3R2^mut, KRAS^mut, Type II
# endometrial cancer = assay: Phase I study, clinical outcomes in endometrial cancer patients; format: in vivo, human
# Method: (§3) In a phase I dose escalation study, subjects were treated with Compound A (copanlisib) administered intravenously over 60 minutes on days 1, 8, and 15 of every 28 day cycle. Seventeen subjects were treated in 5 dose escalation cohorts (0.1, 0.2, 0.4, 0.8, and 1.2 mg/kg), and the maximum tolerated dose (MTD) was determined to be 0.8 mg/kg. Additional patients were enrolled into the study in 3 expansion cohorts treated at the MTD to assess safety, pharmacokinetics, biomarkers, and clinical benefit in selected patient populations, including solid tumors (n=25), non-Hodgkin lymphoma (NHL; n=9), and diabetic solid tumor patients (n=6; treated at 0.4 mg/kg).
# PIK3CA, BRAF, and KRAS mutations were tested using digital PCR on archival tumor samples and cell free DNA isolated from plasma. Next generation sequencing (NGS) of a panel of tumor genes and immunohistochemistry (IHC) for PTEN protein were also performed on archival tumor samples. […] Of the 2 endometrial cancer patients with extended SD lasting more than 8 cycles, PTEN data could only be generated for 1 (patient #2117), and this tumor was also PTEN-negative by IHC (Table 4). The other endometrial cancer patient with extended SD (with 24.3% tumor shrinkage) harbored a KRAS tumor mutation (Table 4). […] Activation of PI3K pathway signaling via a number of mechanisms alone or in combination, such as PTEN loss and/or mutation, PIK3CA mutation, and/or KRAS mutation, may enrich Compound A (copanlisib) activity in this population.
# [3] = Phase I dose escalation study, maximum tolerated dose; settings: human, in vivo, iv; intravenously over 60 minutes on days 1, 8, 15 of every 28 day cycle
# Method: as §3
# RUCA = assay: IC50 in endometrial cancer cell lines (untitled table); format: cell-based; settings: PTEN^del, ER+, Type I
# MFE 296 = assay: as above; format: cell-based; settings: Homo sapiens, PTEN^del, FGFR2^N549K, UTX^del, Type II
# [4] = Compound A (14)10 mg/kg i.v. Q2D
# [5] = Pt 2004, 0.4 mg/kg (40 mg), stage IV
# [6] = Pt 2116, 0.8 mg/kg (59 mg), stage IV
# [7] = Pt 2117, 0.8 mg/kg (51 mg), stage IIIC
# [8] = Doxorubicin Q14D (SoC reference)
smiles,measurement,setting,value
"COCc1c(-c2cc3cc(C)cc(OC)c3s2)c2c(N)ncnn2c1CN1CCNC(=O)C1 [Compound B, 4-{[4-Amino-6-(methoxymethyl)-5-(7-methoxy-5-methyl-1-benzothiophen-2-yl)pyrrolo[2,1-f][1,2,4]triazin-7-yl]methyl}piperazin-2-one]",CR (complete response),[1]; Compound B 75 mg/kg p.o. QD,12.5%
same,PD (progressive disease),[1]; Compound B 75 mg/kg p.o. QD,12.5%
same,PR (partial response),[1]; Compound B 75 mg/kg p.o. QD,0%
same,RR (response rate),[1]; Compound B 75 mg/kg p.o. QD,12.5%
same,T/C (tumor area),[1]; Compound B 75 mg/kg p.o. QD,0.39
same,T/C (tumor weight),[1]; Compound B 75 mg/kg p.o. QD,0.22
same,tumor growth inhibition,"[1]; compound B, at the end of the study",78%
same,concentration up to which no apoptosis induction was shown (cleaved caspase 3/7),MFE-280 cells,> 10 µM
same,concentration up to which no apoptosis induction was shown (cleaved caspase 3/7),MFE-296 cells,> 10 µM
"COc1c(OCCCN2CCOCC2)ccc2c1N=C(NC(=O)c1cnc(N)nc1)N1CCN=C21 [Compound A, 2-amino-N-[7-methoxy-8-(3-morpholin-4-ylpropoxy)-2,3-dihydroimidazo[1,2-c]quinazolin-5-yl]pyrimidine-5-carboxamide]",body weight loss compared to starting body weight,[2],No body weight loss
same,pIC50,HEC-1B,> 8.16
same,pIC50,ECC-1,6.79
same,pIC50,KLE,> 8.16
same,pIC50,MFE 280,> 8.16
same,pIC50,RL95-2,6.84
same,pIC50,Ishikawa,6.43
same,pIC50,AN3CA,> 8.16
same,pIC50,HEC-50,7.19
same,pIC50,HEC-1A,> 8.16
same,CR (complete response),[1]; Compound A 7 mg/kg i.v. Q2D,0%
same,PD (progressive disease),[1]; Compound A 7 mg/kg i.v. Q2D,25%
same,PR (partial response),[1]; Compound A 7 mg/kg i.v. Q2D,25%
same,RR (response rate),[1]; Compound A 7 mg/kg i.v. Q2D,25%
same,T/C (tumor area),[1]; Compound A 7 mg/kg i.v. Q2D,0.40
same,T/C (tumor weight),[1]; Compound A 7 mg/kg i.v. Q2D,0.24
same,CR (complete response),[1]; [4],0%
same,PD (progressive disease),[1]; [4],0%
same,PR (partial response),[1]; [4],37.5%
same,RR (response rate),[1]; [4],37.5%
same,T/C (tumor area),[1]; [4],0.34
same,T/C (tumor weight),[1]; [4],0.16
same,reduction of tumor weight,[1]; compound A 7 mg/kg,~76%
same,reduction of tumor weight,[1]; compound A (14)10 mg/kg,approximately 84%
same,"clinical benefit (patients with CR, PR or SD)",endometrial cancer; 4 of 5 endometrial cancer patients,80%
same,Best % change in tumor size from screening,endometrial cancer; [5],−24.3%
same,Best response,endometrial cancer; [5],SD 8 cycles
same,Best % change in tumor size from screening,"endometrial cancer; Pt 2008, 0.8 mg/kg (40 mg), stage IV",2.4%
same,Best % change in tumor size from screening,endometrial cancer; [6],−8.7%
same,Best response,endometrial cancer; [6],SD 2 cycles
same,Best % change in tumor size from screening,endometrial cancer; [7],−9.1%
same,Best response,endometrial cancer; [7],SD 8 cycles
same,Best % change in tumor size from screening,"endometrial cancer; Pt 3106, 0.8 mg/kg (46 mg, then 37 mg), stage IV",−61.8%
same,tumor shrinkage,endometrial cancer; endometrial cancer patient with extended SD and KRAS tumor mutation,24.3%
same,concentration up to which no apoptosis induction was shown (cleaved caspase 3/7),MFE-280 cells,> 5 µM
same,MTD,[3],0.8 mg/kg
same,concentration up to which no apoptosis induction was shown (cleaved caspase 3/7),MFE-296 cells,> 5 µM
same,pIC50,RUCA,7.86
same,pIC50,MFE 296,> 8.16
"COc1cccc2c1C(=O)c1c(O)c3c(c(O)c1C2=O)C[C@@](O)(C(=O)CO)C[C@@H]3O[C@H]1C[C@H](N)[C@H](O)[C@H](C)O1 [Doxorubicin, reference compound]",CR (complete response),[1]; [8],0%
same,PD (progressive disease),[1]; [8],37.5%
same,PR (partial response),[1]; [8],12.5%
same,RR (response rate),[1]; [8],12.5%
same,T/C (tumor area),[1]; [8],0.51
same,T/C (tumor weight),[1]; [8],0.39
same,tumor growth inhibition assessed by tumor weight,[1]; SoC Doxorubicin,61%
